Patent US6066333A, “Pharmaceutical control of inflammation” (William Harvey Research Limited, priority 1994, dated 2000)
“Also recorded” adds a separate entry of the source.

Assays:
[1] = system: carrageenin pleurisy; test: rat carrageenin pleurisy model of acute inflammation (Example 1); format: in vivo; conditions: for Exudate Volume / Total Cells 10^6: mean ± s.e. mean; for effect on inflammation (exudate volumes and cell numbers) at 6 hours: compared to controls; for increase of exudate volume (cell exudate) compared to vehicle control: SnPP 2 x 40 μmoles/kg s.c.
Description: Male Wistar rates 200±20 grams (Tuck & Sons Ltd., Essex, UK) were used for inflammation. Animals were administered either with 15 mg/kg Ferriprotoporphrin IX chloride (FePP) by intravenous injection--18 hours before inflammation or with 2 doses of 40 μmoles/kg Tin protoporphyrin dichloride (SnPP) by sub-cutaneous injection--18 hours and at the time of inflammation induction (porphyrins were obtained from Porphyrin Products Inc., Logan, Utah). Drugs were prepared in 0.1N NaOH and mixed 1:1 with saline, these were then adjusted to pH 7.4, drug vehicle. The total volume injected was 0.2 ml. Control animals received vehicle only.
Carrageenin pleurisy was induced in rats and cell pellet prepared as previously described by Tomlinson et al.
Results are expressed as the mean ± s.e. mean. Statistical analysis was determined by Mann-Whitney U-test, with a P value of <0.05 considered significant.
The effect of heme-oxygenase inhibitor Tin protoporphyrin dichloride (SnPP) and inducer ferriprotoporphyrin IX chloride (FePP) on acute inflammation was examined. Treatment animals received either 2 doses of 40 μmoles/kg SnPP s.c.--18 and 0 hours before induction of inflammation, or 1 doses of 15 mg/kg FePP i.v--18 before inflammation. Treatment animals were compared to control animals which had received vehicle only by the appropriate route.***P<0.001.

[2] = system: heme-oxygenase; test: HO activity of 24 hour inflammatory cells after porphyrin treatment; format: in vivo, rat; conditions: FIGS. 15 and 16
Description: Cells are lysed by sonication for 10 seconds in protease inhibitory buffer. Heme-oxygenase is assayed as previously described. […] The reaction is started by the addition of the heme, incubated at 37° C. for 30 minutes and stopped by the addition of excess cold heme and bilirubin followed by placing on ice. 2 μl of reaction mixture is spotted twice onto a silica gel thin-layer chromatography sheet. The chromatogram is developed using a 20:1 dilution of chloroform:acetic acid. Spots corresponding to hem and bilirubin are were cut out and placed in 10 ml of scintillation fluid to be counted. […] The activity is expressed as pmoles bilirubin/mg protein/hour, n=9. Results are expressed as the mean ± s.e.mean.

[3] = system: carrageenin pleurisy; test: rat carrageenin pleurisy, dose response of HO modulators (Example 2); format: in vivo; conditions: for effect on the inflammatory lesion compared to vehicle control at 6 hours: 6 hours after carrageenin, PMNs phase (data not shown); for effect on inflammation at 24 hours (dose dependence): 3, 10 or 30 μmoles/kg
Description: Animals received 2 doses of either 3, 10 or 30 μmoles/kg SnPP (a HO inhibitor) or vehicle control--18 hours and at the time of inflammation induction. Animals received 1 dose of either 3, 10 or 30 μmoles/kg FePP (a HO inducer) or vehicle control--18 hours before induction of inflammation, n=9.
Male Wistar rats 200+20 grams were anaesthetized with halothane and 150 ul of a 1% carrageenin solution in 0.9% NaCl injected into the pleural cavity. Exudates were collected 2, 6, 12, 24 and 48 hours after injection of the irritant by pleural lavage with 1 ml protease inhibitory buffer containing: trisodium citrate 3.15%, phenylmethylsulfonyl fluoride 1 mM (Sigma Chemical Co., Poole, UK), pepstatin A 1.5 mM (Sigma) and leupeptin 0.2 mM (Sigma) in 10 mM phosphate buffered (PBS) pH 7.3. Any exudates with blood contamination were rejected. Cells were counted using a Coulter counter, model DN (Coulter Electronics Ltd., Luton, UK). Each sample was centrifuged at 800 g for 10 minutes and the resultant cell pellet prepared as outlined below.
Results are expressed as the mean ± s.e.mean for (n) experiments. Statistical analysis was determined Student's unpaired t test, with a P value of <0.05 considered significant.
To investigate whether increased HO activity was not only associated with tissue protection but also involved in resolving acute inflammation we used an HO inhibitor, tin protoporphyrin (SnPP), administered sub-cutaneously 18 hours before and at the time of carrageenin injection, and an HO inducer, ferriprotoporphyrin IX chloride (FePP), given […] 18 hours before induction of the inflammation (Maines MD et al., FASEB J. 1988; 2:2557-2568).

[4] = system: heme-oxygenase (brain homogenates); test: heme-oxygenase activity in rat brain homogenates; format: biochemical; conditions: for effect on brain HO activity: 0.1-10 mM (sodium nitroprusside 0.001-10 mM)
Description: (§1) The brains and spleens of male Wistar rats (160±20 g, Tuck Co. UK) were homogenized using a glass homogenizer, in protease inhibitory buffer; phenylmethylsulfonyl fluoride 1 mM, pepstatin A 1.5 mM and leupeptin 0.2 mM, in 10 mM phosphate buffered saline pH 7.3. Protein determinations were carried by the Bradford method, bovine serum albumin was used as protein standard.
(§2) Heme-oxygenase activity was assayed as previously described (Sierra, E. E. et al., (1992) Analytical Biochem. 200, 27-30).
(§3) Briefly, the 15 μl reaction mixture consisted of 11.2 μM [^14 C] heme (specific activity 54 Ci/mol), 1 mM NADPH, 2 mM glucose-6-phosphate, 0.1 units of glucose-6-phosphate dehydrogenase, 3 mg/ml liver cytosolic protein, 100-50 μg of sample protein and the relevant concentration of test drugs; L-arginine, D-arginine, NG-nitro-L-arginine methyl ester (L-NAME) or sodium nitroprusside. The reaction mixture containing the test drugs was allowed to equilibrate at 37° C. for 15 mins before the reaction was started by the addition of the heme. The reaction was terminated after 30 mins by the addition of excess cold heme and bilirubin and placed on ice. The reaction mixture was spotted on to the silica gel thin-layer chromatography sheet by 2, 2 μl applications. All samples were run in duplicate. The chromatogram was developed using a 20:1 dilution of chloroform:acetic acid. Spots corresponding to heme and bilirubin were excised and placed in 10 ml of scintillation fluid to be counted. The data was calculated as pmols bilirubin formed/mg protein/hour.
(§4) Statistical analysis of the raw data was carried using Student's unpaired t test. Results expressed as mean ± s.e.mean with P<0.05 considered as significant.

[5] = system: heme-oxygenase (spleen homogenates); test: heme-oxygenase activity in rat spleen homogenates; format: biochemical; conditions: 0.1-10 mM (sodium nitroprusside 0.001-10 mM)
Description: as §1, §2, §3, §4

[6] = 6 hours after carrageenin, SnPP 2 x 40 μmoles/kg s.c. (-18 and 0 h) or FePP 15 mg/kg i.v. (-18 h)
[7] = 6 hours after carrageenin, SnPP 2 x 40 μmoles/kg s.c. or FePP 15 mg/kg i.v.
[8] = 24 hours after carrageenin, SnPP 2 x 40 μmoles/kg s.c. or FePP 15 mg/kg i.v.
[9] = 24 hours, FePP 15 mg/kg i.v., P<0.001
[10] = 24 hours, FePP 3 μmole/kg, 1 dose s.c. 18 hours before

| SMILES | Exudate Volume [1, 6] | Total Cells 10^6 [1, 7] | effect on inflammation (exudate volumes and cell numbers) at 6 hours [1] | Exudate Volume [1, 8] | Total Cells 10^6 [1, 8] | HO activity of inflammatory pellets after treatment [2] | effect on the inflammatory lesion compared to vehicle control at 6 hours [3] | effect on inflammation at 24 hours (dose dependence) ([3]; 24 hours) | effect on brain HO activity [4] | effect on spleen HO activity [5] | further results |
| --- | --- | --- | --- | --- | --- | --- | --- | --- | --- | --- | --- |
| C=CC1=C(C)c2cc3[n-]c(cc4[n-]c(cc5nc(cc1n2)C(C)=C5C=C)c(C)c4CCC(=O)O)c(CCC(=O)O)c3C.[Cl-].[Fe+3] [FePP, Ferriprotoporphrin IX chloride] | 0.99 ± 0.11 mL | 50 ± 8 10^6 | not significantly modified | 0.37 ± 0.07 mL | 45 ± 6 10^6 | increase | Neither SnPP or FePP treatments had an effect | dose dependant suppression of inflammatory cell number and exudate volume | – | – | effect on inflammation (exudate volumes and cell numbers) at 6 hours ([1]; listed as hemin): no significant effect; decrease of cell number (total cells) compared to vehicle control [1, 9]: 50%; decrease of exudate volume (cell exudate) compared to vehicle control [1, 9]: 73%; decrease of exudate volume (cell exudate) compared to vehicle control ([1]; 24 hours, FePP 15 mg/kg i.v., P<0.001, listed as hemin): 83%; degree of suppression compared with conventional anti-inflammatories or steroids in this model ([3]; 24 hours): greater than that seen with optimal doses of conventional anti-inflammatories or steroids; reduction of exudate volume compared to vehicle control [3, 10]: 55%; reduction of inflammatory cell number compared to vehicle control [3, 10]: 90% |
| C=CC1=C(C)C2=Cc3c(C=C)c(C)c4[n]3[Sn]([Cl])([Cl])[n]3c(c(C)c(CCC(=O)O)c3=CC3=NC(=C4)C(C)=C3CCC(=O)O)=CC1=N2 [SnPP, Tin protoporphyrin dichloride] | 1.59 ± 0.12 mL | 67 ± 6 10^6 | not significantly modified | 1.80 ± 0.21 mL | 58 ± 6 10^6 | reduction of HO activity | Neither SnPP or FePP treatments had an effect | dose dependant increase in inflammatory exudate | – | – | effect on inflammation (exudate volumes and cell numbers) at 6 hours ([1]; listed as tin Protoporphyrin-IX): no significant effect; increase of exudate volume (cell exudate) compared to vehicle control ([1]; 24 hours, P<0.001): 128%; increase of exudate volume (cell exudate) compared to vehicle control ([1]; 24 hours, P<0.001, listed as tin Protoporphyrin-IX): 135%; increase of exudate volume compared to vehicle control ([3]; 24 hours, 3 μmoles/kg SnPP, 2 doses s.c.): 70%; effect on exudate volume at highest dose ([3]; 24 hours, SnPP 30 μmoles/kg): increased exudate volume further; effect on inflammatory cell number at highest dose ([3]; 24 hours, SnPP 30 μmoles/kg, likely a toxic effect): decrease in inflammatory cell number |
| N=C(N)NCCC[C@H](N)C(=O)O [L-arginine] | – | – | – | – | – | – | – | – | dose dependent decrease; also recorded: decreased heme-oxygenase activity | not modified; also recorded: no effect | decrease in brain HO activity ([4]; 10 mM, vs control without compound, 30 min): 75% |
| N=C(N)NCCC[C@@H](N)C(=O)O [D-arginine] | – | – | – | – | – | – | – | – | no significant effect | not modified; also recorded: no effect | – |
| COC(=O)[C@@H](N)CCCNC(=N)N[N+](=O)[O-] [L-NAME, NG-nitro-L-arginine methyl ester] | – | – | – | – | – | – | – | – | dose dependent increase; also recorded: increased activity | not modified; also recorded: no effect | increase in brain HO activity ([4]; 5 mM L-NAME, vs control without compound): 80% |
